IC50, EC50 and CC50 data for five compounds are collected here from ChEMBL document CHEMBL1201862, “PubChem BioAssay data set” (2004).

Common to all, as to assay type: functional
The target in assay [1] is Sphingosine 1-phosphate receptor 5 (Homo sapiens, UniProt Q9H228). The experiment in a line: Late stage counterscreen assay for S1P4 antagonists: Fluorescence dose response cell-based screening assay for antagonists of the Sphingosine 1-Phosphate Receptor 5 (S1P5). [Related pubchem assays (depositor defined):AID1510, AID1524, AID1692, AID1853, AID2332, AID489009, AID489017]. In general terms: A counterscreen serves to expose hits that act by an unwanted route or on another target.

The target of assay [2] is Sphingosine 1-phosphate receptor 3 (Homo sapiens, UniProt Q99500). Put plainly: Late stage counterscreen assay for S1P4 antagonists: Fluorescence dose response cell-based screening assay for antagonists of the Sphingosine 1-Phosphate Receptor 3 (S1P3). [Related pubchem assays (depositor defined):AID1510, AID1524, AID1692, AID1853, AID2332, AID489009, AID489017].
Assay [3] deals with Sphingosine 1-phosphate receptor 1 (Homo sapiens, UniProt P21453). Put plainly: Late stage counterscreen assay for S1P4 antagonists: Fluorescence dose response cell-based screening assay for antagonists of the Sphingosine 1-Phosphate Receptor 1 (S1P1). [Related pubchem assays (depositor defined):AID1510, AID1524, AID1692, AID1853, AID2332, AID489009, AID489017].
Assay [4] has as its target T1, Sphingosine 1-phosphate receptor 4 (Homo sapiens, UniProt O95977).
T1 sequence (O95977 whole entry): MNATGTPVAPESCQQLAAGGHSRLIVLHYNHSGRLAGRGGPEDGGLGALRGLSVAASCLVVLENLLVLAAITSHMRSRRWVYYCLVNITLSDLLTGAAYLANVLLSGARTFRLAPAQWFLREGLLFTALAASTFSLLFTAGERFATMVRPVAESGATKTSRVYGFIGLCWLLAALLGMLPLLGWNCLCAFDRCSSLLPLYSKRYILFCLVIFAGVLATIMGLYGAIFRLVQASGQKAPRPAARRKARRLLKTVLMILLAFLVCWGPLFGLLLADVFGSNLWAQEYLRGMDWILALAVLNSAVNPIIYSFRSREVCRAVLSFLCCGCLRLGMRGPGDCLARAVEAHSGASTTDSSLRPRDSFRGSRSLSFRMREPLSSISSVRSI
The experiment in a line: potency of S1P4 blockers – cell-based, fluorescence, synthesized analogues, late-stage follow-up (AID 2346).

The target of assay [5] is Sphingosine 1-phosphate receptor 2 (Homo sapiens, UniProt O95136). Put plainly: Late stage counterscreen assay for S1P4 antagonists: Fluorescence dose response cell-based screening assay for antagonists of the Sphingosine 1-Phosphate Receptor 2 (S1P2). [Related pubchem assays (depositor defined):AID1510, AID1524, AID1692, AID1853, AID2332, AID489009, AID489017].
The target of assay [6] is T2, Intestinal-type alkaline phosphatase (Homo sapiens, UniProt P09923). Put plainly: activation of human intestinal alkaline phosphatase – biochemical, dose response (AID 488873).
Assay [7] concerns the target T3, Intestinal-type alkaline phosphatase (Mus musculus, UniProt P24822). The experiment in a line: mouse intestinal alkaline phosphatase activators, dose response, biochemical, luminescence, uHTS hits (AID 488783).
The target of assay [8] is T4, Alkaline phosphatase, tissue-nonspecific isozyme (Homo sapiens, UniProt P05186).
T4 sequence (P05186 whole entry): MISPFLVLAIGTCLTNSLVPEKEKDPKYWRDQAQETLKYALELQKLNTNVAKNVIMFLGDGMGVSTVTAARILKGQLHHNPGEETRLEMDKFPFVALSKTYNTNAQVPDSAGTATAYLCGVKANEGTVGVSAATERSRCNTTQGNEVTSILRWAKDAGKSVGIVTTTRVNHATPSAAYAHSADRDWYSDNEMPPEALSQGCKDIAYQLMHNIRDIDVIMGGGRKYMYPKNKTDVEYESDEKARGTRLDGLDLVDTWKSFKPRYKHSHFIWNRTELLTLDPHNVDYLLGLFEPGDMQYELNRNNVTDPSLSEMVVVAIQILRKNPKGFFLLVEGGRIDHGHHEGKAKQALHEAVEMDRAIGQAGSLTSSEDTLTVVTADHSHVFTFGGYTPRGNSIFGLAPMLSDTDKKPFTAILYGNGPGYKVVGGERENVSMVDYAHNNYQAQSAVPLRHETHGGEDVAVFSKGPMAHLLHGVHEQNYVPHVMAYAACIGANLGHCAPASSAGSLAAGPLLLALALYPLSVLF
Put plainly: activation of tissue-nonspecific alkaline phosphatase – biochemical, TNAP isozyme, mouse IAP uHTS hits, selectivity assay for mouse IAP activator project, dose response (AID 488880).

The target of assay [9] is G-protein coupled receptor 55 (Homo sapiens, UniProt Q9Y2T6). Put plainly: blockers of GPR55 signalling, imaged – imaging, image-based, counter-screen for GPR35 antagonist project, SAR follow-up (AID 2397).
Assay [10] concerns the target T5, Kappa-type opioid receptor (Homo sapiens, UniProt P41145). The experiment in a line: kappa opioid receptor activation by imaging – image-based, set 3, SAR follow-up (AID 488833).
Assay [11] addresses Mu-type opioid receptor (Homo sapiens, UniProt P35372). Put plainly: SAR Analysis of Agonists of the MOR Receptor using an Image-Based Assay - Set 3. [Related pubchem assays (depositor defined):AID1777, AID1785, AID1786, AID1966, AID2133, AID2136, AID2284, AID2285, AID2352].
Assay [12] deals with Delta-type opioid receptor (Homo sapiens, UniProt P41143). Put plainly: SAR Analysis of Agonists of the DOR Receptor using an Image-Based Assay - Set 3. [Related pubchem assays (depositor defined):AID1777, AID1786].
Assay [13] deals with T5, Kappa-type opioid receptor. The experiment in a line: SAR analysis of small molecule agonists of the kappa opioid receptor via a luminescent beta-arrestin assay - Set 3. [Related pubchem assays (depositor defined):AID1777, AID1785, AID1786, AID1966, AID2133, AID2136, AID2284, AID2500].
In assay [14] the target is T3, Intestinal-type alkaline phosphatase. Put plainly: PubChem AID 488785.
The target in assay [15] is T4, Alkaline phosphatase, tissue-nonspecific isozyme. The experiment in a line: TNAP enzyme inhibition by screening hits, dose response, selectivity assay for mouse IAP inhibitor project, biochemical, human TNAP, uHTS hits (AID 488906).
Assay [16] deals with T2, Intestinal-type alkaline phosphatase. Put plainly: inhibition of human intestinal alkaline phosphatase – biochemical, dose response (AID 488876).
Assay [17] relates to Vero. Put plainly: viability of Vero cells under compound – cytotoxicity control for flavivirus capping enzyme inhibitors (AID 588742). The settings on record: Chlorocebus sabaeus.

Calls of active or inactive are those of the source.

T3 sequence (P24822 whole entry): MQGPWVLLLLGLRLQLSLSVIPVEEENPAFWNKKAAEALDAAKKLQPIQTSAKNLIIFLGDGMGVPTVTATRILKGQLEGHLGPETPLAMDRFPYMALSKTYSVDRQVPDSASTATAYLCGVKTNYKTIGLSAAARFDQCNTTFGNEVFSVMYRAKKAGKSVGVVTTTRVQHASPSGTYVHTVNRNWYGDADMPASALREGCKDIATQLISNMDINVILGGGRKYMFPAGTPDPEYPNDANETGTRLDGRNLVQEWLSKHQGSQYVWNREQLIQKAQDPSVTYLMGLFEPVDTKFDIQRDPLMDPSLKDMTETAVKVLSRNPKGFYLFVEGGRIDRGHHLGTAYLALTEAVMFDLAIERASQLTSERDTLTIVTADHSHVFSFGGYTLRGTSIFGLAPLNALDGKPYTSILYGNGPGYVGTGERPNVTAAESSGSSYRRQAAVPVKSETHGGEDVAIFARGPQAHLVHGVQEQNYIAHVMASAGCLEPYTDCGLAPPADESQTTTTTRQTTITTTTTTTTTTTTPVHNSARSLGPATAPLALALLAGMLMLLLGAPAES
T2 sequence (P09923 whole entry): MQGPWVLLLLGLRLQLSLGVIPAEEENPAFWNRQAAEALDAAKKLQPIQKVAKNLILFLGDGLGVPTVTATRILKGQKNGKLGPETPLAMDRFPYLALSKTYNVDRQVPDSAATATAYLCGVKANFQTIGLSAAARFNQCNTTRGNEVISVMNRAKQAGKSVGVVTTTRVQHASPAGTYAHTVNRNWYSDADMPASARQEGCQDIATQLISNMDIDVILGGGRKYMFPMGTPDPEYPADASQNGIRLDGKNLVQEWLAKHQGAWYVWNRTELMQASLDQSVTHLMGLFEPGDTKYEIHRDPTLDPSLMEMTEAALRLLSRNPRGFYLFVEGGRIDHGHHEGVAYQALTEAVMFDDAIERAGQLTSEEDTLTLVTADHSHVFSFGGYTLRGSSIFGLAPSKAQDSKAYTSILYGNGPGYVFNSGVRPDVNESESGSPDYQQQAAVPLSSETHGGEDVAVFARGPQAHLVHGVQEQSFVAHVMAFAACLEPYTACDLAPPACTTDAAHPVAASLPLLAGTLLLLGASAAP
T5 sequence (P41145 whole entry): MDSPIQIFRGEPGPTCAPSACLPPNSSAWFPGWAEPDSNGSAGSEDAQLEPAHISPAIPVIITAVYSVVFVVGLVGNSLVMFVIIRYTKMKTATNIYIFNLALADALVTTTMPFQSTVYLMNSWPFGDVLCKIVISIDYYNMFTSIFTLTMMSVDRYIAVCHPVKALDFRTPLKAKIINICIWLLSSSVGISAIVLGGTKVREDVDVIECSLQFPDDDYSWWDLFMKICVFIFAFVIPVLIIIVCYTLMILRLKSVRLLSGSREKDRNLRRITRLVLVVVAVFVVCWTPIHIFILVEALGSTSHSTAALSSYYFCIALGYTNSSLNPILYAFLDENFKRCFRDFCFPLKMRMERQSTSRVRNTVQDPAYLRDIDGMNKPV
Sequence of Sphingosine 1-phosphate receptor 2 (O95136 whole entry): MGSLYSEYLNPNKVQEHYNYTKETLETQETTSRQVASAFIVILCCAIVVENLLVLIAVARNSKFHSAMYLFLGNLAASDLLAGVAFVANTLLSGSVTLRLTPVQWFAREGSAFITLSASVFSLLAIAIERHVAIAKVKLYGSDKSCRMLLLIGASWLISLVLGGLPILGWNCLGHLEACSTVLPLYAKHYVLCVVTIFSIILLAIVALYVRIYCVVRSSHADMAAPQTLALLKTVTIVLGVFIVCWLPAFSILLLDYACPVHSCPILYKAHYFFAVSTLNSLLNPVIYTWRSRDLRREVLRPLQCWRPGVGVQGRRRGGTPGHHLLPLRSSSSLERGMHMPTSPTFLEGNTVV
Sequence of G-protein coupled receptor 55 (Q9Y2T6 whole entry): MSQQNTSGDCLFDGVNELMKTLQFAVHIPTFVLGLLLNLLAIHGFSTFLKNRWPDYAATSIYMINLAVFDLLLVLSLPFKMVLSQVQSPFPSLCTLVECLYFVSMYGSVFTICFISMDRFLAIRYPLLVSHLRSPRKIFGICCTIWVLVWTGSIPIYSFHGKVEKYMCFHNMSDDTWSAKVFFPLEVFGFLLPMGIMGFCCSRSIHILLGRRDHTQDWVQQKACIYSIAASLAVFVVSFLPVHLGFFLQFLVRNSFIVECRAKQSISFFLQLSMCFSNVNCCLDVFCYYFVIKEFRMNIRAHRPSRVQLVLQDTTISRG
Sequence of Mu-type opioid receptor (P35372 whole entry): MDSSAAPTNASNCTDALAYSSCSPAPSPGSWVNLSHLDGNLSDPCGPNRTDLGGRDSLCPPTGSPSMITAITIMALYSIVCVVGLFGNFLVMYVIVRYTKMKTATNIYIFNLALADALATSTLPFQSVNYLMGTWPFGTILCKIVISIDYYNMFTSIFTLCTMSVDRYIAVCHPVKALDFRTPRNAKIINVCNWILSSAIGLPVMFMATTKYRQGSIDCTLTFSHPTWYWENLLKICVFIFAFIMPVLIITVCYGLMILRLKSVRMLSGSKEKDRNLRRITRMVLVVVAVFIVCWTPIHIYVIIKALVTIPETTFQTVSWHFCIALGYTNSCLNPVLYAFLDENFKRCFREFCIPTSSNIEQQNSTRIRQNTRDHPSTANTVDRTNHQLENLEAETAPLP
Sequence of Sphingosine 1-phosphate receptor 5 (Q9H228 whole entry): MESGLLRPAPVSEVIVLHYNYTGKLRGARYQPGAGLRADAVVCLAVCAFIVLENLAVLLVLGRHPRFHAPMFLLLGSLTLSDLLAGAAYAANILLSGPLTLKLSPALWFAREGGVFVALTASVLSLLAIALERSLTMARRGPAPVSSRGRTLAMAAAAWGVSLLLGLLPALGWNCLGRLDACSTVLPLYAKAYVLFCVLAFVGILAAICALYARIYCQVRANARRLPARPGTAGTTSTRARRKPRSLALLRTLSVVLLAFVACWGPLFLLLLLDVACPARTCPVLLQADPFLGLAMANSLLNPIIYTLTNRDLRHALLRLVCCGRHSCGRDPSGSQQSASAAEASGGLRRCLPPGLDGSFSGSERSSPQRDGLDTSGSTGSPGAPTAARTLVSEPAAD
Sequence of Sphingosine 1-phosphate receptor 1 (P21453 whole entry): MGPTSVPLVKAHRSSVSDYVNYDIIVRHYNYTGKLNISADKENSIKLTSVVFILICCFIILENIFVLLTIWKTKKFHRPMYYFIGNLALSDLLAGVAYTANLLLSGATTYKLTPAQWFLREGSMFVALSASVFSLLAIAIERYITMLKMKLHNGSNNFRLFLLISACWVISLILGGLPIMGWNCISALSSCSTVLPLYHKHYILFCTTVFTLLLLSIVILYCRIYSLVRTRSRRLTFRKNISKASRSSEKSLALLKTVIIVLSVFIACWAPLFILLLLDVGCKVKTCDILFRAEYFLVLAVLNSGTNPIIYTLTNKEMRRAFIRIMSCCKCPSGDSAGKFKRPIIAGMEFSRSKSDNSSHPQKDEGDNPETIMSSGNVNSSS
Sequence of Delta-type opioid receptor (P41143 whole entry): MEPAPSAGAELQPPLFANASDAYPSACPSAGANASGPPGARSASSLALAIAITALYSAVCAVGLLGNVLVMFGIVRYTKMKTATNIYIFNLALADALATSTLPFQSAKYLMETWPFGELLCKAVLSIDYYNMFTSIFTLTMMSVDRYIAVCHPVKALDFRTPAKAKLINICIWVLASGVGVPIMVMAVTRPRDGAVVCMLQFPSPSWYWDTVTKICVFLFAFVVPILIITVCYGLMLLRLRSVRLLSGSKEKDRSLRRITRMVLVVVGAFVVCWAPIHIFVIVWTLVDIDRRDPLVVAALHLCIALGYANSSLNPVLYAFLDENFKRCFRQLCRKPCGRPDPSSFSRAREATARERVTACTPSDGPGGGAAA
Sequence of Sphingosine 1-phosphate receptor 3 (Q99500 whole entry): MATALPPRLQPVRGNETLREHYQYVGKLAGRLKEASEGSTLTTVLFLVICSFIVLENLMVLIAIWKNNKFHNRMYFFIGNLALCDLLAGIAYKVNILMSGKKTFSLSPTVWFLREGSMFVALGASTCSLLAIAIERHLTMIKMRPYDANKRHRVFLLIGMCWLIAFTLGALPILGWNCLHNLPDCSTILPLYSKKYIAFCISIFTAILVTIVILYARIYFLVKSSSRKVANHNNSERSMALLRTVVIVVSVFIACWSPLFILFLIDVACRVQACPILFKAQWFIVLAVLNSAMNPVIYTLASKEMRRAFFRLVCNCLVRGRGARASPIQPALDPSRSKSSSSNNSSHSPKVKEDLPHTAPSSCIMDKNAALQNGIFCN

A word on the IC50: it is the concentration that inhibits the measured activity by half. Turning to `CCOc1ccc(OC)cc1-c1ccc(C(=O)Nc2c(C)cccc2CC)o1`, the IC50 in [1] was 19.2 µM (inactive); in assay [2], > 25 µM (inactive); in assay [3] it was > 25 µM (inactive); in [4] it was 414 nM (active); in [5], > 25 µM (inactive).
As usually defined, the EC50 is the concentration needed to bring the measured effect to its halfway point. Regarding `COc1ccc(NC(=O)CCNS(=O)(=O)c2ccc3[nH]c(=O)oc3c2)cc1Cl`, the EC50 in assay [6] is 42.8 µM (active); in assay [7], 20.5 µM (active); in assay [8], 39.6 µM (active).
In the case of `Fc1ccc(N2CCN(c3ncnc4c3cnn4Cc3ccc(Cl)cc3Cl)CC2)cc1`, the IC50 in [9] is > 32 µM (inactive).
Regarding `Fc1cc(F)cc(CSc2nnc(-c3ccccn3)n2Cc2cccs2)c1`, the EC50 in assay [10] was 3.58 µM (active); in [11], > 32 µM (inactive); in [12], > 32 µM (inactive); in assay [13] it was 7.2 µM (active).
As usually defined, the CC50 is the concentration giving 50% cytotoxicity. Take `CCOC(=O)C1=C(C)N=c2s/c(=C/c3cccc([N+](=O)[O-])c3O)c(=O)n2C1c1ccc(OC)cc1OC` (configuration not stated): the IC50 in assay [14] is 4.77 µM (active); in assay [15], 77.1 µM (active); in [16], > 100 µM (inactive). Besides, in assay [17], the CC50 was 39.4 µM (active).
